Test results published in the supplement of paper PMC8253809.

Columns and labels:
[1] = system: DIPGX29 (H3.3 K27M diffuse intrinsic pontine glioma line); experiment: maximal growth inhibition (yFin) relative to DMSO / staurosporine; higher = more efficacious
Summary of the method: (§1)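 Patient-derived pHGG/DIPG cell lines and astrocyte controls were plated in 384-well plates coated with 1% Geltrex and dosed by pin tool with a 10-point threefold dilution series (mean top concentration 35 μM), in triplicate. Cells were exposed for 7 days (3 days for iAstro) at 37 °C and 5% CO2. CellTiter-Glo luminescence was log2-transformed, normalised per plate to % activity between negative (solvent) and positive control wells, and pooled. EC50 and maximal response (yFin) were taken from whichever three- or four-parameter log-logistic fit had the lowest AICc.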

[2] = system: DIPGX37 (H3.3 K27M diffuse intrinsic pontine glioma line); experiment: as above
Summary of the method: as §1

[3] = system: DIPGX9 (diffuse intrinsic pontine glioma line); experiment: as above
Summary of the method: as §1

[4] = system: HGGX2 (paediatric high-grade glioma line); experiment: as above
Summary of the method: as §1

[5] = system: HGGX39 (paediatric high-grade glioma line); experiment: as above
Summary of the method: as §1

[6] = system: HGGX42 (H3.3 G34R paediatric high-grade glioma line); experiment: as above
Summary of the method: as §1

[7] = system: HGGX6 (H3.3 G34R paediatric high-grade glioma line); experiment: as above
Summary of the method: as §1

[8] = system: SUDIPGIV (diffuse intrinsic pontine glioma line); experiment: as above
Summary of the method: as §1

[9] = system: SUDIPGVI (diffuse intrinsic pontine glioma line); experiment: as above
Summary of the method: as §1

[10] = system: SUDIPGXIII (diffuse intrinsic pontine glioma line); experiment: as above
Summary of the method: as §1

[11] = system: SUDIPGXIX (diffuse intrinsic pontine glioma line); experiment: as above
Summary of the method: as §1

[12] = system: SUDIPGXVII (diffuse intrinsic pontine glioma line); experiment: as above
Summary of the method: as §1

[13] = system: SUDIPGXXI (diffuse intrinsic pontine glioma line); experiment: as above
Summary of the method: as §1

[14] = system: DIPGX29; experiment: area under dose-response curve of % growth inhibition (log2 RLU vs DMSO / staurosporine), 1e-11 to 1e-4 M (% x log10 M); higher = more growth inhibition
Summary of the method: (§2)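 Patient-derived pHGG/DIPG cell lines and astrocyte controls were grown on 1% Geltrex-coated 384-well plates and exposed to a 10-point threefold dilution series (mean top concentration 35 μM), in triplicate. Exposure was 7 days (iAstro 3 days) at 37 °C, 5% CO2. CellTiter-Glo luminescence was log2-transformed and normalised per plate to % activity between solvent and positive controls. Area under the curve was taken by trapezoid rule from the fitted log-logistic curve, or from a smoothing spline when the sigmoid fit failed.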

[15] = system: DIPGX37; experiment: as above
Summary of the method: as §2

[16] = system: DIPGX7 (H3.3 K27M diffuse intrinsic pontine glioma line); experiment: as above
Summary of the method: as §2

[17] = system: DIPGX9; experiment: as above
Summary of the method: as §2

[18] = system: HABS (astrocyte control); experiment: as above
Summary of the method: as §2

[19] = system: HGGX2; experiment: as above
Summary of the method: as §2

[20] = system: HGGX39; experiment: as above
Summary of the method: as §2

[21] = system: HGGX42; experiment: as above
Summary of the method: as §2

[22] = system: HGGX6; experiment: as above
Summary of the method: as §2

[23] = system: SUDIPGIV; experiment: as above
Summary of the method: as §2

[24] = system: SUDIPGVI; experiment: as above
Summary of the method: as §2

[25] = system: SUDIPGXIII; experiment: as above
Summary of the method: as §2

[26] = system: SUDIPGXIX; experiment: as above
Summary of the method: as §2

[27] = system: SUDIPGXVII; experiment: as above
Summary of the method: as §2

[28] = system: SUDIPGXXI; experiment: as above
Summary of the method: as §2

[29] = system: iAstro (astrocyte control); experiment: as above
Summary of the method: as §2

Row | Structure (SMILES) | maximal growth inhibition [1] [%] | maximal growth inhibition [2] [%] | maximal growth inhibition [3] [%] | maximal growth inhibition [4] [%] | maximal growth inhibition [5] [%] | maximal growth inhibition [6] [%] | maximal growth inhibition [7] [%] | maximal growth inhibition [8] [%] | maximal growth inhibition [9] [%] | maximal growth inhibition [10] [%] | maximal growth inhibition [11] [%] | maximal growth inhibition [12] [%] | maximal growth inhibition [13] [%] | area under dose-response curve [14] | area under dose-response curve [15] | area under dose-response curve [16] | area under dose-response curve [17] | area under dose-response curve [18] | area under dose-response curve [19] | area under dose-response curve [20] | area under dose-response curve [21] | area under dose-response curve [22] | area under dose-response curve [23] | area under dose-response curve [24] | area under dose-response curve [25] | area under dose-response curve [26] | area under dose-response curve [27] | area under dose-response curve [28] | area under dose-response curve [29]
1 | CC(=O)c1cc([N+](=O)[O-])c(Sc2ccc(F)cc2F)s1 | 115 | 112 | 109 | 106 | 24.6 | 108 | 104 | 104 | 94.1 | 104 | 118 | 74.3 | 113 | 104 | 88.6 | 94.3 | 92.8 | 26.4 | 78.5 | 19.5 | 84 | 67.9 | 91.3 | 71.4 | 74.4 | 91.8 | 55.7 | 87.4 | 75.5
2 | CC(C)c1c2cc(-c3ccnc(NC4CCC(NC5CCOCC5)CC4)n3)ccc2nn1C (configuration not stated) | 84.4 | 81.2 | 89.5 | 75.2 | 83.2 | 82 | 78 | 90.4 | 84 | 89.3 | 91.6 | 89.7 | 99.9 | 222 | 225 | 270 | 283 | 135 | 198 | 189 | 252 | 210 | 256 | 252 | 249 | 278 | 263 | 319 | 91.7
3 | CC(C)c1cc(C(=O)N2Cc3ccc(CN4CCN(C)CC4)cc3C2)c(O)cc1O | 105 | 92.6 | 94.9 | 54.4 | 105 | 65 | 34.9 | 56.5 | 51.6 | 51.9 | 77.2 | 67.2 | 105 | 189 | 264 | 125 | 281 | 215 | 145 | 218 | 131 | 92.3 | 152 | 88.8 | 111 | 230 | 164 | 256 | 88
4 | COc1cc(F)ccc1-c1ncnc(Nc2cccc(CS(C)(=N)=O)c2)n1 (configuration not stated) | 78.9 | 76.2 | 103 | 57.3 | 68 | 67 | 84.1 | 97.4 | 89.8 | 87 | 100 | 94.9 | 114 | 109 | 128 | 143 | 195 | 104 | 100 | 82.1 | 134 | 121 | 156 | 120 | 84.4 | 156 | 109 | 226 | 57.6
5 | Cc1ccc2nc(NCCN)c3ncc(C)n3c2c1 | 88.2 | 86.6 | 98.5 | 45.5 | 57.7 | 83.9 | 81.8 | 91.6 | 70.6 | 73.5 | 85.2 | 88.5 | 117 | 94.6 | 93.7 | 96.7 | 99.8 | 54.2 | 54.2 | 52.5 | 83.7 | 75.1 | 113 | 67 | 89.5 | 79.1 | 78.2 | 143 | 35.1
6 | O=C(c1ccccc1)c1ccc2nc(NC(=O)c3csc(C4CCN(c5ncnc6ccsc56)CC4)n3)[nH]c2c1 | 62.1 | 38.4 | 44.1 | 51.9 | 29.6 | 48.7 | 36 | 27.7 | 45.9 | 50.1 | 112 | 28.2 | 111 | 97.4 | 89.1 | 135 | 62.6 | 42.1 | 83.7 | 55.4 | 72.8 | 55.8 | 51.4 | 67 | 114 | 118 | 68.3 | 147 | 88.4
7 | COCC1(CO)C(=O)C2CCN1CC2 (configuration not stated) [APR-246] | 106 | 111 | 105 | 97.9 | – | 99.8 | 90.1 | 105 | 102 | 97.3 | 96.4 | 99 | 112 | 90.6 | 87.7 | 79.7 | 94.2 | 8.03 | 69.5 | 13 | 72 | 73.1 | 85.3 | 72.7 | 74.7 | 74.8 | 87.2 | 177 | 82.7
8 | CN1[C@@H]2CC[C@H]1C[C@@H](OC(=O)c1cc(Cl)cc(Cl)c1)C2 [BEMESETRON] | 89.8 | 102 | 43.8 | 49.4 | 81.4 | 86.2 | 63.8 | 77.1 | – | – | 77.2 | 44.2 | 104 | 101 | 137 | 112 | 58.7 | 14.8 | 64 | 85.8 | 119 | 73.6 | 93.7 | 15.4 | 8.98 | 65.3 | 39.9 | 166 | 35.7
9 | CC(C)C[C@H](NC(=O)[C@H](CCc1ccccc1)NC(=O)CN1CCOCC1)C(=O)N[C@@H](Cc1ccccc1)C(=O)N[C@@H](CC(C)C)C(=O)[C@@]1(C)CO1 [CARFILZOMIB] | 96.2 | 98.9 | 115 | 97.2 | 107 | 77 | 91.3 | 98.6 | 95.3 | 105 | 116 | 105 | – | 171 | 266 | 303 | 343 | 280 | 344 | 239 | 213 | 217 | 320 | 259 | 148 | 294 | 249 | 649 | 379
10 | Cc1noc2c1-c1ccccc1C(c1ccc(Cl)cc1)=N[C@H]2CC(N)=O [CPI-0610] | 90.8 | – | 113 | 69.1 | 109 | 80.1 | 41.6 | 75.1 | 106 | – | 127 | 63.3 | 116 | 99.5 | 81.3 | 105 | 194 | 97.5 | 98.6 | 110 | 110 | 59.4 | 114 | 121 | 13.5 | 156 | 88.9 | 251 | 67
11 | CCCc1cc(C)[nH]c(=O)c1CNC(=O)c1cc(-c2ccnc(N3CCN(C)CC3)c2)cc2c1cnn2C(C)C [GSK343] | 120 | 122 | 123 | 113 | 20.4 | 115 | 111 | 74.3 | 112 | 87.9 | 125 | – | 126 | 78.7 | 99.1 | 71.6 | 90.7 | 56.1 | 88.2 | 12.1 | 98.2 | 66.3 | 51.3 | 66.2 | 49.9 | 122 | 12.3 | 102 | 58.3
12 | C=CCn1c(=O)c2cnc(Nc3ccc(N4CCN(C)CC4)cc3)nc2n1-c1cccc(C(C)(C)O)n1 [MK-1775] | 39.2 | 22.2 | 41.4 | 31 | 43.8 | 34.5 | 24.9 | 46.7 | – | – | 37.7 | 25.1 | 91.8 | 114 | 48.9 | 58.4 | 60 | 35.1 | 83 | 46.4 | 53.5 | 37.6 | 96 | 27.9 | 15 | 73.8 | 39.4 | 190 | 71.1
13 | CCOc1cc(C(C)(C)C)ccc1C1=N[C@@](C)(c2ccc(Cl)cc2)[C@@](C)(c2ccc(Cl)cc2)N1C(=O)N1CCN(CCCS(C)(=O)=O)CC1 [RG7112] | 93.2 | – | 109 | 101 | 96.2 | 94.2 | 86.4 | 55.8 | 35.2 | 61.6 | 113 | 102 | 115 | 85.4 | 169 | 73.2 | 204 | 176 | 77.8 | 82.1 | 76 | 61.6 | 47.8 | 30.5 | 77.5 | 204 | 91.7 | 288 | 69.8
